ChEMBL document CHEMBL1201862, “PubChem BioAssay data set” (2004)
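Cultured in 96-well plates, cells were exposed to test compound for 48 hours across five concentrations. GI50 marks 50% less growth.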 Active and inactive are the calls of the source. No stated cut-off is given here; in the data, active = GI50 up to about 1.1 µM and inactive = higher.

Experiments:
Assay in all cases: growth of human tumour cells (NCI), 48 h
NCI-H23 = test system: NCI-H23
OVCAR-4 = test system: OVCAR-4
UACC-257 = test system: UACC-257
SK-OV-3 = test system: SK-OV-3
UACC-62 = test system: UACC-62
M14 = test system: M14
A498 = test system: A498
SK-MEL-28 = test system: SK-MEL-28
HCT-15 = test system: HCT-15
HOP-18 = test system: HOP-18
TK-10 = test system: TK-10
RXF 393 = test system: RXF 393
EKVX = test system: EKVX
M19-MEL = test system: M19-MEL
DMS-273 = test system: DMS-273
HCC 2998 = test system: HCC 2998
786-0 = test system: 786-0
SF-268 = test system: SF-268
HT-29 = test system: HT-29
A549 = test system: A549
SNB-75 = test system: SNB-75
KM12 = test system: KM12
NCI-H460 = test system: NCI-H460
U-251 = test system: U-251
SF-539 = test system: SF-539
LOX IMVI = test system: LOX IMVI
ACHN = test system: ACHN
LXFL 529 = test system: LXFL 529
KM-20L2 = test system: KM-20L2
OVCAR-5 = test system: OVCAR-5
SF-295 = test system: SF-295
SN12C = test system: SN12C
HCT-116 = test system: HCT-116
CAKI-1 = test system: CAKI-1
UO-31 = test system: UO-31
SK-MEL-2 = test system: SK-MEL-2
SNB-78 = test system: SNB-78
OVCAR-8 = test system: OVCAR-8
HOP-62 = test system: HOP-62
XF498 = test system: XF498
COLO 205 = test system: COLO 205
RXF 631 = test system: RXF 631
SNB-19 = test system: SNB-19
IGROV-1 = test system: IGROV-1
SK-MEL-5 = test system: SK-MEL-5
OVCAR-3 = test system: OVCAR-3
DLD-1 = test system: DLD-1
SW-620 = test system: SW-620
Malme-3M = test system: Malme-3M
K562 = test system: K562
HL-60 = test system: HL-60
MOLT-4 = test system: MOLT-4
NCI-H522 = test system: NCI-H522
DMS-114 = test system: DMS-114
CCRF-CEM = test system: CCRF-CEM
HOP-92 = test system: HOP-92
RPMI-8226 = test system: RPMI-8226
SR = test system: SR
NCI-H226 = test system: NCI-H226

Measured: GI50

CN1CC(=O)N2Cc3ccccc3-n3cccc3C2C1 (stereo not given)
inactive: NCI-H23 > 100 µM | OVCAR-4 > 100 µM | UACC-257 > 100 µM | SK-OV-3 > 100 µM | UACC-62 > 100 µM | M14 > 100 µM | A498 > 100 µM | SK-MEL-28 > 100 µM | HOP-18 4.92 µM | TK-10 > 100 µM | RXF 393 > 100 µM | EKVX > 100 µM | M19-MEL > 100 µM | DMS-273 > 100 µM | HCC 2998 > 100 µM | 786-0 > 100 µM | SF-268 > 100 µM | HT-29 > 100 µM | A549 > 100 µM | SNB-75 > 100 µM | KM12 > 100 µM | NCI-H460 > 100 µM | U-251 > 100 µM | SF-539 > 100 µM | LOX IMVI > 100 µM | ACHN > 100 µM | LXFL 529 > 100 µM | KM-20L2 > 100 µM | OVCAR-5 > 100 µM | SF-295 > 100 µM | SN12C > 100 µM | HCT-116 > 100 µM | CAKI-1 > 100 µM | UO-31 > 100 µM | SK-MEL-2 > 100 µM | SNB-78 > 100 µM | OVCAR-8 > 100 µM | HOP-62 > 100 µM | XF498 > 100 µM | COLO 205 > 100 µM | RXF 631 > 100 µM | SNB-19 > 100 µM | IGROV-1 > 100 µM | SK-MEL-5 > 100 µM | OVCAR-3 > 100 µM | DLD-1 > 100 µM | SW-620 > 100 µM | Malme-3M > 100 µM
> 100 µM: HCT-15

CCCCCCCCCCNCCSSCc1ccc(Cl)cc1
inactive: OVCAR-4 1.71 µM | SK-OV-3 3.84 µM | A498 10.2 µM | HOP-18 > 10 µM | K562 1.24 µM | TK-10 2.18 µM | RXF 393 3.3 µM | EKVX 3.06 µM | M19-MEL 1.22 µM | HL-60 1.75 µM | DMS-273 1.4 µM | HCC 2998 1.89 µM | 786-0 5.71 µM | HT-29 1.77 µM | A549 1.85 µM | SNB-75 5.86 µM | KM12 1.36 µM | NCI-H460 3.25 µM | U-251 3.27 µM | SF-539 1.95 µM | LOX IMVI 1.92 µM | ACHN 4.68 µM | NCI-H522 1.61 µM | LXFL 529 1.56 µM | KM-20L2 1.36 µM | OVCAR-5 1.91 µM | SF-295 1.91 µM | SN12C 1.91 µM | HCT-116 1.73 µM | DMS-114 1.57 µM | CAKI-1 2.18 µM | UO-31 2.25 µM | OVCAR-8 2.07 µM | XF498 2.8 µM | COLO 205 2.39 µM | RXF 631 1.69 µM | SNB-19 1.71 µM | IGROV-1 2.94 µM | OVCAR-3 1.96 µM | CCRF-CEM 1.64 µM | DLD-1 2.07 µM | SW-620 1.6 µM | Malme-3M 2.95 µM
2.48 µM: HCT-15
active: UACC-257 0.714 µM | UACC-62 0.407 µM | M14 0.233 µM | SK-MEL-28 0.366 µM | SF-268 0.631 µM | MOLT-4 0.439 µM | SK-MEL-2 0.352 µM | SK-MEL-5 0.509 µM

COc1ccc2c(c1)C(CCN)C(=O)N2 (stereo not given)
inactive: NCI-H23 > 100 µM | OVCAR-4 > 100 µM | UACC-257 > 100 µM | SK-OV-3 > 100 µM | UACC-62 > 100 µM | M14 > 100 µM | A498 > 100 µM | SK-MEL-28 > 100 µM | HOP-18 > 100 µM | K562 > 100 µM | TK-10 > 100 µM | EKVX > 100 µM | M19-MEL > 100 µM | HL-60 > 100 µM | DMS-273 > 100 µM | HCC 2998 > 100 µM | 786-0 > 100 µM | SF-268 > 100 µM | MOLT-4 > 100 µM | HT-29 > 100 µM | A549 > 100 µM | SNB-75 > 100 µM | KM12 > 100 µM | NCI-H460 > 100 µM | U-251 > 100 µM | SF-539 > 100 µM | LOX IMVI > 100 µM | ACHN > 100 µM | HOP-92 > 100 µM | LXFL 529 > 100 µM | KM-20L2 > 100 µM | OVCAR-5 > 100 µM | SF-295 > 100 µM | HCT-116 > 100 µM | DMS-114 > 100 µM | CAKI-1 > 100 µM | SK-MEL-2 > 100 µM | RPMI-8226 > 100 µM | SNB-78 > 100 µM | OVCAR-8 > 100 µM | HOP-62 > 100 µM | XF498 > 100 µM | COLO 205 > 100 µM | RXF 631 > 100 µM | IGROV-1 > 100 µM | SK-MEL-5 > 100 µM | OVCAR-3 > 100 µM | CCRF-CEM > 100 µM | DLD-1 > 100 µM | SW-620 > 100 µM | Malme-3M > 100 µM
> 100 µM: HCT-15

COc1ccc(-c2cc(N3CCN(c4ccccc4)CC3)c(C#N)c(=O)o2)cc1
inactive: NCI-H23 47.6 µM | OVCAR-4 4.59 µM | UACC-257 50.1 µM | M14 > 100 µM | SR > 100 µM | A498 26.9 µM | SK-MEL-28 15.6 µM | HOP-18 4.88 µM | K562 61 µM | TK-10 22.4 µM | RXF 393 13.7 µM | EKVX 23.8 µM | HL-60 60.7 µM | DMS-273 40 µM | HCC 2998 65.6 µM | SF-268 8.55 µM | MOLT-4 > 100 µM | HT-29 > 100 µM | A549 21.2 µM | SNB-75 7.41 µM | KM12 > 100 µM | NCI-H460 26.5 µM | U-251 37.6 µM | SF-539 11.3 µM | LOX IMVI 30.5 µM | ACHN 28.6 µM | HOP-92 55 µM | LXFL 529 27.3 µM | KM-20L2 > 100 µM | OVCAR-5 > 100 µM | SF-295 14.3 µM | SN12C 30.2 µM | HCT-116 62.8 µM | DMS-114 22.1 µM | CAKI-1 16.7 µM | UO-31 13.2 µM | SK-MEL-2 18.8 µM | RPMI-8226 62.5 µM | SNB-78 22.6 µM | OVCAR-8 20.7 µM | XF498 6.59 µM | COLO 205 > 100 µM | RXF 631 21.5 µM | NCI-H226 7.74 µM | SNB-19 8.49 µM | IGROV-1 24.8 µM | SK-MEL-5 36.4 µM | CCRF-CEM 98.4 µM | DLD-1 57 µM | SW-620 42 µM | Malme-3M 19.4 µM
65.2 µM: HCT-15

NC1=NN(c2ccccc2)C(=O)C1C(=O)C(=O)Nc1cccc(C(F)(F)F)c1 (stereo not given)
> 100 µM: HCT-15
inactive: NCI-H23 > 100 µM | OVCAR-4 > 100 µM | UACC-257 > 100 µM | SK-OV-3 > 100 µM | UACC-62 > 100 µM | M14 > 100 µM | A498 > 100 µM | HOP-18 67.9 µM | K562 86.1 µM | TK-10 > 100 µM | EKVX > 100 µM | M19-MEL > 100 µM | HL-60 89.3 µM | DMS-273 > 100 µM | HCC 2998 > 100 µM | 786-0 > 100 µM | SF-268 > 100 µM | MOLT-4 > 100 µM | HT-29 > 100 µM | A549 > 100 µM | KM12 > 100 µM | NCI-H460 > 100 µM | U-251 > 100 µM | SF-539 > 100 µM | LOX IMVI > 100 µM | ACHN > 100 µM | NCI-H522 > 100 µM | HOP-92 23.7 µM | LXFL 529 67.1 µM | KM-20L2 > 100 µM | OVCAR-5 > 100 µM | SF-295 > 100 µM | SN12C > 100 µM | HCT-116 > 100 µM | DMS-114 > 100 µM | CAKI-1 > 100 µM | UO-31 > 100 µM | SK-MEL-2 > 100 µM | RPMI-8226 > 100 µM | SNB-78 > 100 µM | OVCAR-8 > 100 µM | HOP-62 > 100 µM | XF498 > 100 µM | COLO 205 > 100 µM | RXF 631 > 100 µM | NCI-H226 > 100 µM | SNB-19 > 100 µM | IGROV-1 > 100 µM | SK-MEL-5 > 100 µM | OVCAR-3 > 100 µM | CCRF-CEM > 100 µM | DLD-1 > 100 µM | SW-620 > 100 µM | Malme-3M > 100 µM
